Measured values reported in publication PMC8110578, “Phenylethynylbenzyl-modified biguanides inhibit pancreatic cancer tumor growth” (Scientific Reports, 2021).

What was measured:
HPNE-hTERT cells = test: Cell death assay (trypan blue), HPNE-hTERT cells; format: cell-based, human; conditions: 15 µM for 24 h
From the text: (§1) Figure 3 Effects of biguanides on cell proliferation and viability in pancreatic cancer cells. […]. […] | decimal sign comma or point
(§2) Experimental. […] At the end of the treatments, adherent cells were recovered by trypsinization, along with floating cells recovered by centrifugation of the culture medium. Floating and adherent cells were pooled together. The faction of dead cells was quantified by counting the proportion of trypan blue-positive (dead cells) and the proportion of living cells (trypan blue-negative).

[1] = Solubility in methanol and DMSO; format: physicochemical; conditions: even at high concentrations
KP4 cells = test: Cell death assay (trypan blue), KP4 cells; format: cell-based, human; conditions: 15 µM for 24 h
From the text: as §2

AMPK = test: Immunoblots of AMPK T172 and ACC S79 phosphorylation, KP4 cells; format: cell-based, human; conditions: 15 µM, 24 h
Experimental: as §1
. […]. Experimental. Cells were rinsed twice with 1X PBS, and lysed in Laemmli 2x (4% SDS, 20% glycerol, 120 mM Tris-HCl pH 6.8). Laemmli extracts were boiled for 5 minutes, then the concentration was assessed with NanoDrop (ThermoFisher) and equalized between samples. Lysates were supplemented with 10% beta-mercaptoethanol and 0.05% bromophenol blue and boiled again for 5 minutes. 25 µg of extracts were loaded on SDS-PAGE then transferred on nitrocellulose membranes for 1h30 at 130V. Membranes were rinsed in 1XPBS1-0.05% Tween-20 then blocked for 1h in 1XPBS, 0.05%-Tween-20 5% Milk. Membranes were rinsed again 3 x 10 min in PBS-Tween, then incubated overnight at 4°C with the following primary antibodies in 1XPBS-0.1%BSA, 0.02%Sodium azide: anti-phospho-AMPK T172 (1:1000, Rabbit, 2531S, Cell Signaling), anti-AMPKalpha (1:1000, Rabbit, 2532, Cell Signaling), anti-phospho-ACC S79 (1:1000, Rabbit Polyclonal, 3661S, Cell Signaling), or incubated for 1h at RT with anti-beta-Actin (1:2000, Mouse, 3700, Cell Signaling). […]

[2] = tested on: KP4 cells sub-cutaneous xenografts; test: KP4 sub-cutaneous xenografts in nude mice; conditions: 50 mg/kg/day IP, 5 day/week
From the text: This dose was chosen from previous work on biguanides to treat mice with pancreatic cancer.
Figure 5 Progression of the volume of KP4 cells sub-cutaneous xenografts performed in nude mice over 37 days. […] (B) Body weight of mice seven days after treatment. […] Representative images shown. Scale bar = 100 µm. […] Results are shown in graphics comparing the percentage of cells stained in each category and the intensity of staining. (E,G) Images of the most representative phenotypes for KI67 staining (E) and cleaved caspase 3 (G).
Experimental. All experiments were performed in accordance to the rules of the in vivo ethical committe of University of Montreal (CDEA #17-103). 6-7 weeks old female nude mice (Hsd:Athymic Nude- Foxn1nu, Envigo) were implanted sub-cutaneously with 750.000 KP4 cells in 100μl of a sterile mix of 20% Matrigel (Corning) in saline solution. Tumor volume was determined by using a caliper, following the formula 4/3*Π*(L*W*T) were L represent the length of the tumor, W, the width, and T, the thickness (all measured in millimeter). […] The compounds were dissolved in the vehicle: 45% Propyleneglycol (Sigma-Aldrich) +5% Tween 80 (Sigma-Aldrich) + ddH2O.

[3] = tested on: NAD+/NADH ratio in PSN1 cells; test: NAD/NADH quantification, PSN1 cells; format: cell-based; conditions: 15 µM, 6 h
Experimental: All chemicals were purchased from Aldrich Chemicals in their highest purity and used without further purification. Deuterated dimethylsulfoxide (DMSO-d^6) and deuterated chloroform (CDCl3) were purchased from CDN Isotopes. NMR spectra were recorded on Bruker advance 400 and 100 spectrometers. Coupling constants are given in hertz (Hz) and chemical shifts are given in parts per million (ppm, δ) measured relative to the residual solvent (the multiplicity of the signals are given as s: singlet, d: doublet, t: triplet, and m: multiplet). High-resolution mass spectra (HRMS) were recorded on a TSQ Quantum Ultra (Thermo Scientific) triple quadrupole with accurate mass option instrument (Université de Montréal Mass Spectrometry Facility). […] Transport and depolarization studies as well as absorbance measurements were performed on a Varian Cary Eclipse fluorescence spectrophotometer. The hemolysis assays were performed on a Fluostar Optima plate reader. […] A suitable crystal was selected and analysed on a Bruker Venture Metaljet diffractometer. Crystal violet retention assay was used for cell growth assays and IC50 were determined using Prism (GraphPad). NAD/NADH quantitation colorimetric kit (#K337-100) from Biovision was used according to manufacturer’s instructions. ECAR (extracellular acidification rate) and OCR of KP4 cells (oxygen consumption rate) were measured on a Seahorse XF-24 (Agilent). […]

Structure (SMILES): N=C(N)NC(=N)NCc1ccc(C#Cc2ccccc2)cc1 [1b, 4-(phenylethynyl)benzylbiguanide]
- Effect on the fraction of dead HPNE cells (HPNE-hTERT cells): did not increase the fraction of dead cells
- Solubility in methanol and DMSO [1]: good methanol and DMSO solubility even at high concentrations
- Increase of the fraction of dead KP4 cells (KP4 cells): ~ 20%
- AMPK activation (phosphorylation of AMPK T172 and ACC) (AMPK): induced AMPK activation
- Effect on body weight [2]: did not affect body weight
- Tolerability in vivo [2]: well tolerated
- Effect on tumor volume ([2]; from day 11 post engraftment, 37 days): significantly reduced tumor volume
- Decrease of NAD+/NADH ratio [3]: 25%
